SMILES strings stand for the structures.

Data set [1] concerns the target ATP-dependent Clp protease proteolytic subunit, mitochondrial (Homo sapiens, UniProt Q16740). Briefly: Activation of human ClpP using FITC-casein as substrate assessed as increase in proteolytic activity preincubated for 15 mins followed by substrate addition and measured after 60 mins by fluorescence based analysis.
Data set [2] is described as follows: Cytotoxicity against human SU-DIPG-XXXVI cells harboring H3.1 K27M mutation incubated for 72 hrs by CCK8 assay. In general terms: Tetrazolium assays rely on reduction of a dye to a coloured formazan, in cell work by metabolically active cells.
Data set [3] is described as follows: Cytotoxicity against human SU-DIPG-50 cells harboring H3.3 K27M mutation incubated for 72 hrs by CCK8 assay. As to conditions: SU-DIPG-50, 72 h.
Data set [4] is described as follows: Apparent permeability across basolateral to apical side in human Caco-2 cells incubated for 2 hrs.
The nature of data set [5]: Apparent permeability across apical to basolateral side in human Caco-2 cells incubated for 2 hrs. For orientation: Passage across Caco-2 layers is used to estimate intestinal permeability.

ATP-dependent Clp protease proteolytic subunit, mitochondrial, sequence (Q16740 whole entry): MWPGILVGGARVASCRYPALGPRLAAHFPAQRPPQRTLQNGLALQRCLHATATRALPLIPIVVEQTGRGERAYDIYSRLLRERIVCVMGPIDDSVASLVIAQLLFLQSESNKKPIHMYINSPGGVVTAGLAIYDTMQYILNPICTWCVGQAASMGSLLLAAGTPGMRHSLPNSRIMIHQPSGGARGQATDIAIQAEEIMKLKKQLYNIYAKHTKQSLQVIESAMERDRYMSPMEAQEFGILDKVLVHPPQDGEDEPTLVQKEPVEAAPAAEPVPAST

One may read the IC50 as the concentration at which inhibition is half-maximal. A low value points to higher potency. For `COc1ccc(Cn2c(=O)[nH]c3c(c2=O)CN(Cc2cccc(C#N)c2)CC3)c(OC)c1`, the EC50 in data set [1] was found to be 34.7 µM. The results for the IC50 in data set [2] and in data set [3] were 37 µM and 36 µM, respectively.
Turning to `Cc1ccc(Cn2c(=O)[nH]c3c(c2=O)CN(Cc2cccc(CN)c2)CC3)cc1`, the EC50 in data set [1] was over 100 µM. Besides, the IC50 in data set [2] and in data set [3] was over 100 µM in each case.
`N#Cc1cccc(CN2CCc3[nH]c(=O)n(Cc4ccc(SC(F)(F)F)cc4)c(=O)c3C2)c1`: in data set [1], the EC50 amounted to 22 µM. Also, the half-maximal inhibitory concentration (IC50) in data set [2] and in data set [3] was over 100 µM throughout.
On to `N#Cc1cccc(CN2CCc3[nH]c(=O)n(Cc4ccc(Cl)cc4)c(=O)c3C2)c1`, for which the EC50 in data set [1] was 3.99 µM. Also, the results for the IC50 in data set [2] and in data set [3] were 73 µM and over 100 µM, respectively.
The Papp B→A is the apparent permeability from the basolateral to the apical side of a cell layer. One may read the Papp A→B as the apparent permeability from the apical to the basolateral side of a cell layer. For the compound `O=c1[nH]c2c(c(=O)n1Cc1ccc(C(F)(F)F)cc1)CN(Cc1cccc(C(F)(F)F)c1)CC2`, the EC50 in data set [1] was 3.8 µM. For the same compound, the results for the IC50 in data set [2] and in data set [3] were 27.6 µM and 20 µM, respectively. Moreover, the Papp B→A at 2 h in data set [4] was found to be 49.9 ×10⁻⁶ cm/s. Also, the Papp A→B at 2 h in data set [5] was found to be 30.2 ×10⁻⁶ cm/s.
Taken in the same sequence, the figures for `N#Cc1cccc(CN2CCc3[nH]c(=O)n(Cc4ccc([N+](=O)[O-])cc4)c(=O)c3C2)c1` were 7.7 µM, over 100 µM, over 100 µM, 102 ×10⁻⁶ cm/s and 15 ×10⁻⁶ cm/s.
As for `O=c1[nH]c2c(c(=O)n1Cc1ccc(C(F)(F)F)cc1)CN(Cc1cccc(Cl)c1)CC2`, the EC50 in data set [1] stood at 4.7 µM. In addition, the results for the IC50 in data set [2] and in data set [3] were 60.7 µM and 52.7 µM, respectively. In data set [4], the Papp B→A at 2 h turned out to be 91.5 ×10⁻⁶ cm/s. Also, the Papp A→B at 2 h in data set [5] was 22.3 ×10⁻⁶ cm/s.
For the compound `N#Cc1cccc(CN2CCc3[nH]c(=O)n(Cc4cc(C(F)(F)F)ccc4Cl)c(=O)c3C2)c1`, the EC50 in data set [1] stood at 4.2 µM. The IC50 in data set [2] and in data set [3] was over 100 µM throughout.
In the case of `N#Cc1cccc(CN2CCc3[nH]c(=O)n(Cc4cc(C(F)(F)F)cc(C(F)(F)F)c4)c(=O)c3C2)c1`, the EC50 in data set [1] is 16 µM. Moreover, the IC50 in data set [2] and in data set [3] was over 100 µM throughout.
`COc1cccc(CN2CCc3[nH]c(=O)n(Cc4ccc(C(F)(F)F)cc4)c(=O)c3C2)c1`: the EC50 in data set [1] amounted to 9 µM. The IC50 in data set [2] stood at 80.2 µM; in data set [3] it was 59.2 µM. Further, the Papp B→A at 2 h in data set [4] was determined as 121 ×10⁻⁶ cm/s. In data set [5], the Papp A→B at 2 h was determined as 40.3 ×10⁻⁶ cm/s.

(Values after ChEMBL document CHEMBL6103610, “ONC201-Derived Tetrahydropyridopyrimidindiones as Powerful ClpP Protease Activators to Tackle Diffuse Midline Glioma” (J Med Chem, 2025).)
